According to patent US20240345094A1, “DOUBLE FRAGMENTATION ISOBARIC TAGGING” (Saint Louis University, priority 2023, published 2024):
Entries after “also recorded” stand apart in the source; their conditions may differ.

Test system: Bovine aortic endothelial cells
Test: Changes in thiol metabolism upon γ-glutamyl-cysteine synthetase inhibition (6-plex tagged LC-MS of cell lysates)
Type: cell-based
Conditions: 250 μM BSO for 16 hours vs reduced-serum media control
Experimental: Cell culture and lysis: Bovine aortic endothelial cells between passage number 7 and 10 were cultured to confluency in 6 cm plates with Dulbecco's modified eagle medium (DMEM) supplemented with 10% fetal bovine serum (FBS) at 37° C. and 5% CO2. Cell media was swapped with DMEM supplemented with 2% FBS and 250 μM BSO. Control plates were swapped to DMEM with 2% FBS. All plates were lysed after 16 hours as previously described (Filla, L. A., et al., Anal Bioanal Chem 2019, 411 (24), 6399-6407). Briefly, the media was removed and the cells were rapidly rinsed with 1 mL of phosphate-buffered saline. Cells were lysed with the addition of 500 μL of cold 80/20 MeOH/H2O containing 100 mM formic acid and 5 μM of D4 homocysteine as an internal standard. Plates were placed on a dry ice-ethanol bath and the cell contents were collected, then centrifuged at 21,100×g for three minutes. The supernatant was immediately collected and stored on dry ice until derivatization.
Thiol Derivatization: Thiol metabolite stocks were created as individual 500 μM vials with 50/50 H2O/MeOH containing 20 mM formic acid and stored at −20° C. to minimize degradation. Lower concentration stocks were produced by further dilution and derivatized immediately. For cell lysate reactions, 100 μL of the lysate was used for each reaction. Thiol metabolites were added to 100 μL of 100 mM ammonium bicarbonate pH 8. An isotopic iodide tag was then immediately added (100 μL, 100 μM) and left at room temperature to react for 16 hours to ensure a complete reaction. All iodide tags and reactions were handled in the dark to prevent degradation. After the reaction was completed, the samples were mixed with the other isotope variants, dried in a vacuum centrifuge, and reconstituted to 100 μL in the starting mobile phase conditions.
Liquid Chromatography: Fused silica capillary (Polymicro Technologies, Phoenix, AZ) was used to fabricate columns with an inner diameter of 50 μm as previously described (Edwards, J. L., et al, Journal of Chromatography A 2007, 1172 (2), 127-134). Briefly, 50 μm inner diameter capillary was cut to 25 cm, a photopolymerized frit placed 30 mm from the end, then a tip pulled with a Sutter P2000 micropipette puller and etched in 50% HF. The capillary bed was packed to 20 cm with Atlantis silica HILIC 3 μm particles (Waters Corp, Milford, MA). After equilibration the capillary was cut to 17.5 cm for analysis. Flow was delivered by a Thermo Vanquish LC (Thermo Fisher Scientific, Waltham, MA) connected to a stainless steel tee to split the flow. A 50 μm×100 cm open capillary was used as the split to direct 115 nL of the total flow and 4 nL injections to the capillary column (split ratio 1:1500 for bulk flow of 175 μL/min and injection of 6 μL). The split ratio was determined by calculating flow through the capillary based on the experimental dead time and column dimensions. Mobile phase A was pure acetonitrile and mobile phase B was 25 mM ammonium acetate in 80/20 (water/ACN) with 0.05% acetic acid as an additive. The gradient is supplied in Table 1 below.
MS Analysis: A Q-Exactive mass spectrometer (Thermo Fisher Scientific, Waltham, MA) was used for all analyses. An MS^1 survey scan operated at a resolution of 17.5K with an ion injection time of 50 ms and AGC of 1e^6 for m/z 250-650. […] These MS^2 scans operated at a resolution of 140K with an ion injection time of 200 ms, AGC of 1e^5, and the optimized collision energy determined for each analyte. […]

`CCCCS(=N)(=O)CCC(N)C(=O)O` (centres unmarked) [BSO, Buthionine sulfoximine] was tested, and the GSH level change (n=3, FIG. 5B) was “Significant decreases; also recorded: glutathione depletion was observed”, the cysteinyl-glycine level change (n=3, FIG. 5B) was “Significant decreases” and the Glutamyl-cysteine level change (n=3, near the limit of detection) was “did not change significantly”. For the same molecule, the cysteine level change (n=3, trended upward) was “did not change” and the homocysteine level change (n=3, trended upward) was “did not change”.
